Experimental data: patent US11324803B2, “Methods and compositions for treatment of Gaucher Disease via modulation of C5a receptor” (Children's Hospital Medical Center, priority 2015, dated 2022)

Legend:
C5a receptor 1 = molecular target: T1, C5a receptor 1 (Rattus norvegicus, UniProt P97520); conditions: introduced orally; cited from earlier work
T1 construct: host or cells: rats, in vivo
T1 sequence (P97520 1-352): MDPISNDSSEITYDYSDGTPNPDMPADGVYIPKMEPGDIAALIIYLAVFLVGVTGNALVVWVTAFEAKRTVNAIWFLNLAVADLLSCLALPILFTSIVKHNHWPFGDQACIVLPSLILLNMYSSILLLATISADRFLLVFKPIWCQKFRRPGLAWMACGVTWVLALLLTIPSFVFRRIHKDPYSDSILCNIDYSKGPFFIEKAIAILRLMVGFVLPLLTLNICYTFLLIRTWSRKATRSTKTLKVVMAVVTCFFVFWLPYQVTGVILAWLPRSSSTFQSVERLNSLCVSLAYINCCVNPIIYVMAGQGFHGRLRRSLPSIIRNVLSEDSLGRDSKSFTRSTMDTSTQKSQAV

GCase = molecular target: T2, GCase (Mus musculus, UniProt P17439); test: CBE-induced GCase deficiency (pharmacologically-induced Gaucher disease) in mice; format: in vivo
T2 construct: endogenous in cells; host or cells: WT, C5aR1-/-, C5aR2-/-, Fcer1g-/- and Fcgr2b-/- mice, in vivo
T2 sequence (P17439 20-515): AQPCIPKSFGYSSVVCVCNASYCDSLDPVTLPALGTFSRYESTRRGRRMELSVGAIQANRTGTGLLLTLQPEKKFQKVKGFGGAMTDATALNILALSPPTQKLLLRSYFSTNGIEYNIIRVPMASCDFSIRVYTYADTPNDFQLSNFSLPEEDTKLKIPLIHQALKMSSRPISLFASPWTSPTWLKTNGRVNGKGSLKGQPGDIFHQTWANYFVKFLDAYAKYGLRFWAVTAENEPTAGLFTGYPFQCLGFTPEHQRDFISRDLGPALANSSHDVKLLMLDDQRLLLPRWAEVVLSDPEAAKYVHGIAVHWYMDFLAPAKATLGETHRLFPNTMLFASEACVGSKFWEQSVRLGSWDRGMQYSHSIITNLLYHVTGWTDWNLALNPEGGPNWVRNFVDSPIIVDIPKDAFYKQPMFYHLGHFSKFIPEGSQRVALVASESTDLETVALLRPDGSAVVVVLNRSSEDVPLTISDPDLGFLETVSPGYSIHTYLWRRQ
Excerpt: Sera from human patients with Gaucher disease (n=10) and healthy volunteers (n=15) were from the freezer and de-identified. Human patients with Gaucher disease were diagnosed at Cincinnati Children's Hospital Medical Center (CCHMC). […] The study was approved by the ethics committee at CCHMC. In vivo C5aR1 deficiency or blockade in 9V/null mice and in a CBE-induced mouse model of Gaucher disease. To assess the impact of genetic or pharmacological targeting of C5aR1 on the inflammatory response in Gaucher disease, WT (n=10) and C5aR1^−/− mice (n=10) were treated with conduritol B epoxide (CBE), which is an irreversible inhibitor of acid β-glucosidase^24. More specifically, both mouse strains were injected intraperitoneally (i.p.) with 100 mg CBE/kg body weight or vehicle (PBS)/day for up to 60 days, which was the termination point of these experiments. After 60 days of the indicated treatment with CBE, immune cells (MΦs, DCs, and T cells) were purified from lung of these mouse strains and used for measurement of GC, costimulatory molecules, and several of the pro-inflammatory cytokines. In additional experiments, WT (n=15) or 9V/null mice (n=15) were injected with 100 μl of the C5aR antagonist A8^Δ71-73 (i.p. 0.5 mg/kg) or vehicle (100 μl, PBS) on five consecutive days. Five days after the final C5aRA treatment, liver, spleen and lung were separated and measured for GC accumulation. Further, DCs and CD4^+ T cells were purified from the lung of the indicated mouse strains and measured for costimulatory molecule expression and the production of pro-inflammatory cytokines. Preparation of tissue cells. Liver, spleen, lung and BM were harvested aseptically. Single cell suspensions from liver and lung were obtained from minced pieces that were treated with Liberase Cl (0.5 mg/mL) and DNase (0.5 mg/mL) in RPMI (45 min, 37° C.). Single cell suspensions from spleen were obtained by grinding and then filtration through a 70-micron cell strainer. […] For BM cells, femurs, tibias and humeri were flushed with sterile phosphate buffered saline (PBS), followed by RBC lysis (155 mM NH4Cl, 10 mM NaHCO3, 0.1 mM EDTA), passage through a strainer. Cells were then pelleted by centrifugation at 350×g. Viable cells were counted using a Neubauer chamber and trypan blue exclusion. DCs, MΦs, and CD4^+ T lymphocytes were purified from single cell suspensions of liver, spleen, and lung using CD11c, CD11b, and CD4 (L3T4) microbeads according to the manufacturer's protocol. The purity of the cells was ˜90%-95%.
To determine levels of IgG antibodies to GC or GS in mice and human Gaucher patients, 10 μg of GC or GS were dissolved in 1 ml of methanol and water to a final concentration of 10 μg/ml. One hundred microliters of this GC solution (1 μg/well) were used to coat a 96 well ELISA plate. In case of GS, plates were first filled with 300 µl of poly L lysine solution (0.1 mg/ml). After 10 minutes, excess solution was removed and plates were thoroughly rinsed with sterile water and allowed to dry for several hours. Such plates were then coated with 100 μl of indicated GS solution (1 μg/well). Both of these GC and GS coated plates were kept overnight at room temperature followed by three washings with PBS containing 1% Tween-20 (PBST). Test sera (100 μl; 1:100) isolated from WT (n=15) and 9V/null mice (n=15), CBE-treated (n=10) and untreated WT mice (n=10), as well as healthy humans (n=15) and untreated Gaucher disease patients (n=10), and control antibodies to GC were loaded into the lipid-coated wells followed by incubation for 1.5 hours at RT. […]

DCs and CD4+ T cells [1] = test: DC / CD4+ T cell co-culture with C5a: cytokine production by ELISA; format: cell-based, mouse; conditions: cells from 9V/null mice vs WT, C5a 32 nM, 48 h co-culture
Procedure: (§1) To assess the GC-induced C5a influence on alteration in costimulatory molecules, DCs and CD4^+ T cells purified from lung of 9V/null and background matched WT mice (n=15, each group) were stimulated ex vivo in the presence and absence of different concentration of C5a (0,8,16, and 32 nM) for 24 hours at 37° C. DCs and CD4^+ T cells were purified liver, spleen, and lung of CBE-induced chemical model of Gaucher disease in C5aR1^−/− (n=10) and background-matched WT mice (n=10). These DCs were used to perform FACS staining with antibodies to CD40, CD80, and CD86, whereas CD4^+T cells were used to perform FACS staining with antibodies to CD40L and CD69. To assess the GC induced C5a impact on cytokines and chemokines production, DCs and CD4^+T cells (1:2.5 ratio) purified from lung of 9V/null (n=15) and background-matched WT mice (n=15) were co cultured in the presence and absence of C5a (32 nM) for 48 hours in complete medium. In additional experiments, indicated ratios ([…]) of DCs and CD4^+T cells purified from lung of CBE treated and untreated WT and C5aR1^−/− mice (n=10/each group) were co-cultured for 48 hrs in complete medium. Supernatant of these experiments were used to measure […], TNF-α, IL-1β, IL-6, IL-12p40, IL-12p70, IL-23, IL-17A/F and IL-23 by ELISA. […]

DCs and CD4+ T cells [2] = test: C5a stimulation of DCs and CD4+ T cells: co-stimulatory molecule expression; format: cell-based, mouse; conditions: WT and 9V/null cells, C5a 0, 8, 16, 32 nM, 24 h
Procedure: as §1

[3] = WT mice treated for 30 days with CBE vs PBS

## AcF-[OP(D-Cha)WR]
C5a receptor 1
  effect in rat models of acute inflammation: beneficial

## O[C@H]1[C@H](O)[C@@H](O)[C@@H]2O[C@@H]2[C@@H]1O (racemic) [CBE, conduritol B epoxide]
GCase; C5aR1−/− mice, 100 mg CBE/kg/day i.p.
  survival after daily injections of CBE for 60 days: survived
GCase; C5aR2−/− mice, 100 mg CBE/kg/day i.p.
  time of death under daily CBE injections: 29 to 35 days
GCase; Fcer1g−/− mice, 100 mg CBE/kg/day i.p.
  time of death under daily CBE injections: 29 to 36 days
GCase; Fcgr2b−/− mice, 100 mg CBE/kg/day i.p.
  time of death under daily CBE injections: 29 to 36 days
GCase; [3]
  serum levels of C5a: elevated
  serum levels of IgG2a and IgG2b antibodies to GC: significantly elevated
GCase; WT mice, 100 mg CBE/kg/day i.p.
  time of death under daily CBE injections: 29 to 35 days

## HC-[OP(D-Cha)WR]
C5a receptor 1
  effect in rat models of acute inflammation: beneficial

## PMX53
C5a receptor 1
  effect in rat models of acute inflammation: beneficial

B1: C5a: small peptide of the complement anaphylatoxin family, cleaved from C5 (protein, UniProt P01031 678-751, looked up)
C5a anaphylatoxin: TLQKKIEEIAAKYKHSVVKKCCYDGACVNNDETCEQRAARISLGPRCIKAFTECCVVASQLRANISHKDMQLGR
modifications: C5a anaphylatoxin
notes: small peptide of the complement anaphylatoxin family, cleaved from C5
DCs and CD4+ T cells [1]
  production of IFN-γ, TNF-α, IL-1β, IL-6, and IL-17: dramatically increased
DCs and CD4+ T cells [2]
  expression levels of CD40, CD80, CD86 and CD40L and CD69: increased
